Measured values taken from patent US20110039763A1, “TARGETED ANTIMICROBIAL MOIETIES” (C3 JIAN, INC., priority 2009, published 2011).
Entries after “also recorded” stand apart in the source; their conditions may differ.

Legend:
[1] = system: microorganisms; test: Targeting peptide binding to target microorganisms (Tables 3, 10, 12); conditions: microorganism(s) the targeting peptide binds; binding in aqueous buffers varied with peptide solubility, preferably 1x PBS
[2] = system: microorganisms; test: Peptide activities: targeting/binding, antimicrobial, growth or phenotype altering (Tables 7, 8); format: cell-based; conditions: peptides having multiple activities
[3] = system: microorganisms; test: Morphology, biofilm and growth disrupting peptides (Table 5); format: cell-based; design: key: A: Peptide aggregates; B: Less hyphal formation; Clumps; Diffuse clumps and small polyps; F: Diffuse growth; H: Thin; I: Growth inhibition; Microcolony formation; Rippled; Small polyps; Thick; W: Halo formation on top, microlonies on bottom
Description: In certain embodiments peptides that induce alterations in phenotype or other biological activities can also be used as antimicrobial effector moieties.

## PF-546: peptide having multiple activities (PIIAPTIKTQIQ; Peptide with targeting and/or antimicrobial activity)
[1]
  Target(s): S. epidermidis; also recorded: E. coli; also recorded: C. albicans; also recorded: S. pneumoniae; also recorded: E. faecalis; also recorded: C. jeikeium
[2]
  Activities: G B
[3]; C. jeikeium
  Organism, effect: C. jeikeium (D)
[3]; E. coli
  Organism, effect: E. coli (R)
[3]; E. faecalis
  Organism, effect: E. faecalis (D)
[3]; MRSA
  Organism, effect: MRSA (D)
[3]; S. epidermidis
  Organism, effect: S. epidermidis (D)
[3]; S. pneumoniae
  Organism, effect: S. pneumoniae (D)

## PF-549: peptide having multiple activities (TGIGPIARPIEHGLDS; Peptide with targeting and/or antimicrobial activity)
[1]
  Target(s): E. coli; also recorded: C. albicans; also recorded: S. pneumoniae; also recorded: C. jeikeium
[2]
  Activities: G B
[3]; B. subtilis
  Organism, effect: B. subtilis (D)
[3]; MRSA
  Organism, effect: MRSA (C)

## PF-550: peptide having multiple activities (STENGWQEFESYADVGVDPRRYVPL; Peptide with targeting and/or antimicrobial activity)
[1]
  Target(s): S. pneumoniae
[2]
  Activities: G B
[3]; B. subtilis
  Organism, effect: B. subtilis (D)

## PF-551: peptide having multiple activities (QVKEKRREIELQFRDAEKKLEASVQAE; Peptide with targeting and/or antimicrobial activity)
[1]
  Target(s): S. pneumoniae
[2]
  Activities: G B
[3]; MRSA
  Organism, effect: MRSA (C)

## PF-552: peptide having multiple activities (ELDKADAALGPAKNLAPLDVINRS; Peptide with targeting and/or antimicrobial activity)
[1]
  Target(s): S. pneumoniae
[2]
  Activities: G B
[3]; B. subtilis
  Organism, effect: B. subtilis (D)

## PF-553: peptide having multiple activities (LTIVGNALQQKNQKLLLNQKKITSLG; Peptide with targeting and/or antimicrobial activity)
[1]
  Target(s): S. epidermidis and E. coli and P. aeruginosa and C. albicans and MRSA and S. pneumoniae and C. jeikeium
[2]
  Activities: G B
[3]; B. subtilis
  Organism, effect: B. subtilis (D)
[3]; C. jeikeium
  Organism, effect: C. jeikeium (R)
[3]; MRSA
  Organism, effect: MRSA (M)
[3]; S. pneumoniae
  Organism, effect: S. pneumoniae (R)

## PF-554: peptide having multiple activities (AKNFLTRTAEEIGEQAVREGNINGP; Peptide with targeting and/or antimicrobial activity)
[1]
  Target(s): S. pneumoniae
[2]
  Activities: G B
[3]; B. subtilis
  Organism, effect: B. subtilis (D)

## PF-557: peptide having multiple activities (AANKAREQAAAEAKRKAEEQAR; Peptide with targeting and/or antimicrobial activity)
[1]
  Target(s): S. pneumoniae
[2]
  Activities: G B
[3]; B. subtilis
  Organism, effect: B. subtilis (D)

## PF-558: peptide having multiple activities (ADAPPPLIVRYS; Peptide with targeting and/or antimicrobial activity)
[1]
  Target(s): S. epidermidis; also recorded: E. coli; also recorded: C. albicans; also recorded: C. jeikeium; also recorded: C. jejuni
[2]
  Activities: G B
[3]; B. subtilis
  Organism, effect: B. subtilis (D)
[3]; C. jejuni
  Organism, effect: C. jejuni (H)
[3]; MRSA
  Organism, effect: MRSA (C)
[3]; S. epidermidis
  Organism, effect: S. epidermidis (M)
[3]; S. pneumoniae
  Organism, effect: S. pneumoniae (R)

## PF-559: peptide having multiple activities (SRPGKPGGVSIDVSRDRQDILSNYP; Peptide with targeting and/or antimicrobial activity)
[1]
  Target(s): S. epidermidis; also recorded: M. luteus; also recorded: C. albicans; also recorded: C. jeikeium; also recorded: C. jejuni
[2]
  Activities: G B
[3]; B. subtilis
  Organism, effect: B. subtilis (C)
[3]; C. jejuni
  Organism, effect: C. jejuni (A)

## PF-560: peptide having multiple activities (FGNPFRGFTLAMEADFKKRK; Peptide with targeting and/or antimicrobial activity)
[1]
  Target(s): S. epidermidis; also recorded: M. luteus; also recorded: E. coli; also recorded: S. pneumoniae; also recorded: C. jeikeium; also recorded: C. jejuni
[2]
  Activities: G B
[3]; B. subtilis
  Organism, effect: B. subtilis (D)
[3]; C. jejuni
  Organism, effect: C. jejuni (A)
[3]; MRSA
  Organism, effect: MRSA (C)
[3]; S. pneumoniae
  Organism, effect: S. pneumoniae (R)

## PF-563: peptide having multiple activities (RPELDNELDVVQNSASLDKLQASYN; Peptide with targeting and/or antimicrobial activity)
[1]
  Target(s): S. epidermidis; also recorded: M. luteus; also recorded: C. jeikeium
[2]
  Activities: G B
[3]; B. subtilis
  Organism, effect: B. subtilis (D)
[3]; C. jejuni
  Organism, effect: C. jejuni (H)
[3]; S. pneumoniae
  Organism, effect: S. pneumoniae (H)

## PF-564: peptide having multiple activities (TIILNDQINSLQERLNKLNAETDRR; Peptide with targeting and/or antimicrobial activity)
[1]
  Target(s): S. epidermidis; also recorded: C. albicans; also recorded: S. pneumoniae; also recorded: C. jeikeium
[2]
  Activities: G B
[3]; B. subtilis
  Organism, effect: B. subtilis (D)
[3]; C. jeikeium
  Organism, effect: C. jeikeium (R)
[3]; C. jejuni
  Organism, effect: C. jejuni (R)
[3]; MRSA
  Organism, effect: MRSA (C)

## PF-566: peptide having multiple activities (EAQQVTQQLGADFNAITTPTATKV; Peptide with targeting and/or antimicrobial activity)
[1]
  Target(s): P. mirabilis; also recorded: S. pneumoniae
[2]
  Activities: G B
[3]; B. subtilis
  Organism, effect: B. subtilis (C)
[3]; C. jeikeium
  Organism, effect: C. jeikeium (C)
[3]; C. jejuni
  Organism, effect: C. jejuni (D)
[3]; M. luteus
  Organism, effect: M. luteus (D)
[3]; MRSA
  Organism, effect: MRSA (M)
[3]; S. pneumoniae
  Organism, effect: S. pneumoniae (D)

## PF-567: peptide having multiple activities (QQRVKAVDASLSQVSTQVSGAVASA; Peptide with targeting and/or antimicrobial activity)
[1]
  Target(s): S. epidermidis and P. aeruginosa and C. albicans and MRSA and S. pneumoniae and C. jeikeium
[2]
  Activities: G B
[3]; C. jeikeium
  Organism, effect: C. jeikeium (C)
[3]; C. jejuni
  Organism, effect: C. jejuni (D)
[3]; M. luteus
  Organism, effect: M. luteus (C)
[3]; MRSA
  Organism, effect: MRSA (D)
[3]; S. pneumoniae
  Organism, effect: S. pneumoniae (D)

## PF-569: peptide having multiple activities (KSKISEYTEKEFLEFVEDIYTNNK; Peptide with targeting and/or antimicrobial activity)
[1]
  Target(s): M. luteus; also recorded: P. mirabilis; also recorded: S. pneumoniae; also recorded: E. faecalis; also recorded: C. jeikeium
[2]
  Activities: G B
[3]; B. subtilis
  Organism, effect: B. subtilis (D)

## PF-572: peptide having multiple activities (WRASKGLPGFKAG; Peptide with targeting and/or antimicrobial activity)
[1]
  Target(s): S. epidermidis; also recorded: M. luteus; also recorded: E. coli; also recorded: S. pneumoniae; also recorded: C. jeikeium
[2]
  Activities: G B
[3]; B. subtilis
  Organism, effect: B. subtilis (D)
[3]; S. pneumoniae
  Organism, effect: S. pneumoniae (R)

## PF-573: peptide having multiple activities (EKKLIVKLIDSIGKSHEEIVGAG; Peptide with targeting and/or antimicrobial activity)
[1]
  Target(s): S. epidermidis; also recorded: S. pneumoniae
[2]
  Activities: G B
[3]; S. pneumoniae
  Organism, effect: S. pneumoniae (C)

## PF-576: peptide having multiple activities (AYSGELPEPLVRKMSKEQVRSVMGK; Peptide with targeting and/or antimicrobial activity)
[1]
  Target(s): M. luteus; also recorded: P. mirabilis; also recorded: E. coli; also recorded: P. aeruginosa; also recorded: C. albicans; also recorded: S. pneumoniae
[2]
  Activities: G B
[3]; C. jejuni
  Organism, effect: C. jejuni (C)
[3]; E. coli
  Organism, effect: E. coli (A)
[3]; MRSA
  Organism, effect: MRSA (R)
[3]; S. epidermidis
  Organism, effect: S. epidermidis (A)
[3]; S. pneumoniae
  Organism, effect: S. pneumoniae (C)
